Source: PubChem BioAssay (NCI)
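Results reflect a 48-hour exposure of cells in 96-well plates to compound at five concentrations. TGI is the concentration that stops growth completely.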

Columns and labels:
Experiment in all cases: inhibition of tumour cell growth, NCI panel, 48 h
[1] = system: OVCAR-3 ovarian
[2] = system: MDA-MB-435
[3] = system: NCI-H522 lung
[4] = system: HCT-116 colon
[5] = system: RPMI-8226 leukemia
[6] = system: OVCAR-8 ovarian
[7] = system: K-562 leukemia
[8] = system: UACC-62 melanoma
[9] = system: NCI-H460 lung
[10] = system: T-47D breast

Compound | TGI [1] [µM] | TGI [2] [µM] | TGI [3] [µM] | TGI [4] [µM] | TGI [5] [µM] | TGI [6] [µM] | TGI [7] [µM] | TGI [8] [µM] | TGI [9] [µM] | TGI [10] [µM]
O=C(CNc1ccccc1C(=O)O)Nn1cnc2ccc(S(=O)(=O)Nc3ccccc3C(=O)O)cc2c1=O | > 100 | > 100 | > 100 | > 100 | > 100 | > 100 | > 100 | > 100 | > 100 | –
C=C(NC(=O)C(=C)NC(=O)c1ccc2c(n1)-c1coc(n1)C(=C)NC(=O)C(=C)NC(=O)c1nc(oc1C)C(=C)NC(=O)C(C(C)(C)O)NC(=O)C(=C)NC(=O)c1coc(n1)/C(=C/C)NC(=O)[C@H]([C@@H](C)O)NC(=O)c1csc-2n1)C(N)=O (stereo not given in full) | > 87.5 | > 87.5 | > 87.5 | > 87.5 | > 87.5 | > 87.5 | > 87.5 | – | > 87.5 | –
CC(O)c1nc(C#N)c(N)o1 (stereo not given) | > 100 | – | > 100 | > 100 | > 100 | > 100 | > 100 | > 100 | – | > 100
Cc1cn(CCCCCCOC(=O)NC(CCCNC(N)=O)C(=O)O)c(=O)[nH]c1=O (stereo not given) | > 100 | > 100 | – | > 100 | > 100 | > 100 | > 100 | > 100 | > 100 | > 100
c1cnc2c(c1)-n1cccc1C1(CCCCC1)NN2 | > 100 | – | > 100 | > 100 | > 100 | > 100 | > 100 | – | > 100 | –
CC1=C(C)C(=O)C(C2=CC(=O)c3ccccc3C2=O)=C(C2=CC(=O)c3ccccc3C2=O)C1=O | – | 1.19 | 17.4 | > 100 | – | > 62.3 | – | 27.6 | 25.4 | 45.1
C=C(C)C1CC(=O)C(C)=C(O)C1 (stereo not given) | – | – | > 100 | > 100 | – | > 100 | > 100 | > 100 | > 100 | > 100
O=C(O)c1c(CC(Cc2ccc3c(c2)CCC3)C(=O)O)ccc2c1CCC2 (stereo not given) | > 100 | > 100 | > 100 | > 100 | > 100 | > 100 | > 100 | – | > 100 | –
CCC1(O)CC(CCN(Cc2ccccc2)C(=O)OCc2ccccc2)C(OCc2ccccc2)C1O (stereo not given) | 26.8 | 38.2 | 23.5 | 48.8 | – | 30.1 | 19.5 | 28.3 | 31.3 | 30.6
CC(C)CCCC(C)[C@H]1CCC(C2C[C@@H](O)[C@@H]3CC(O)[C@@H](O)C[C@]3(CO)C2=O)[C@]1(C)CCO (stereo not given in full) | 47.9 | – | 73.8 | 38.2 | > 100 | > 76.1 | 61.2 | 34.5 | 45.2 | –
N#Cc1nc(CCc2nc(C#N)c(N)o2)oc1N | – | > 10 | > 10 | > 10 | > 10 | > 10 | > 10 | > 10 | > 10 | > 10
COC(=O)[C@]1(c2cc3ccccc3n2S(=O)(=O)c2ccccc2)CC2CN(C(=O)OCc3ccccc3)C1C1OC(C)(C)OC21 (stereo not given in full) | > 100 | > 100 | > 100 | > 100 | > 100 | > 100 | – | > 100 | > 100 | –
CC(=O)C(=Cc1cn(C)c(=O)n(C)c1=O)C(C)=O | 299 | – | 67.1 | 188 | 284 | 324 | 465 | 148 | 231 | –
C=C1CCC[C@@H](C)C(O)[C@@H]2OC(=O)C(=C)[C@@H]2C[C@@H](OC(C)=O)[C@@]2(C)CC[C@@H]1O2 (stereo not given in full) | 11.5 | 15.1 | 4.93 | 13.8 | > 50 | 16.4 | 12.1 | 11.7 | – | 19.2
COC(=O)c1sc(=O)sc1SCc1cccc(CSc2sc(=O)sc2C(=O)OC)c1 | > 100 | > 100 | > 100 | > 100 | – | > 100 | > 100 | > 100 | > 100 | > 100
C[s+]1c2ccccc2c2ccccc21 | > 100 | – | > 100 | > 100 | > 100 | > 100 | > 100 | > 100 | > 100 | –
COC(=O)C1=C(CCCCO[Si](C)(C)C(C)(C)C)NC(=O)N2[C@H](CCOCc3ccccc3)CC[C@@H]12 | > 100 | > 100 | > 100 | > 100 | > 100 | – | > 100 | > 100 | > 100 | > 100
COc1cc2c(cc1O)C1Cc3ccc(OC)c(O)c3C[N+]1(C)CC2 (stereo not given) | – | > 100 | – | > 100 | > 100 | > 100 | > 100 | > 100 | > 100 | > 100
O=C(c1ccccc1)C1N=NN(Cc2ccccc2[N+](=O)[O-])C1C(=O)c1ccccc1 (stereo not given) | > 100 | – | > 100 | > 100 | > 100 | > 100 | > 100 | > 100 | > 100 | –
CC(Nc1ccc(Cl)cc1)c1ccncc1 (stereo not given) | > 100 | > 100 | > 100 | > 100 | 98.3 | > 100 | > 100 | – | > 100 | > 100
Cc1cc(=O)[nH]c(NNC(C#N)c2cccc([N+](=O)[O-])c2)n1 (stereo not given) | > 100 | – | > 100 | > 100 | > 100 | > 100 | > 100 | > 100 | > 100 | –
CC(C)(C)C(=O)Nc1c(C=O)ccc2[nH]cnc12 | > 100 | > 100 | > 100 | > 100 | > 100 | > 100 | > 100 | – | > 100 | > 100
COc1ccc(N2C(=O)C3c4[nH]c5c(C)cccc5c4C4CCC(C(C)C)CC4C3C2=O)cc1 (stereo not given) | 28.4 | 23.3 | 27.2 | – | > 100 | 42.9 | 5.86 | – | 39.7 | 48.6
